Reference: patent publication US20250243196A1, “CITRON KINASE INHIBITORS” (The Cleveland Clinic Foundation, priority 2021, published 2025)

How the values were obtained:
Assay in all cases: KinaseProfiler panel
Format in all cases: biochemical
Details in all cases: activity remaining
[1] = target: ATM(h) (Homo sapiens (Human), UniProt Q13315); design: dose or concentration left out as unconfirmed
[2] = target: BIKE(h) (Homo sapiens (Human), UniProt Q9NSY1); design: dose or concentration left out as unconfirmed
[3] = target: CaMKI(h) (Homo sapiens (Human), UniProt Q14012); design: dose or concentration left out as unconfirmed
[4] = target: CDK16/cyclinY(h) (Homo sapiens (Human), UniProt Q00536); design: dose or concentration left out as unconfirmed
[5] = target: DRAK1(h) (Homo sapiens (Human), UniProt Q9UEE5)
[6] = target: DYRK1A(h) (Homo sapiens (Human), UniProt Q13627); design: dose or concentration left out as unconfirmed
[7] = target: DYRK1B(h) (Homo sapiens (Human), UniProt Q9Y463); design: dose or concentration left out as unconfirmed
[8] = target: Fms(h) (Homo sapiens (Human), UniProt P07333); design: dose or concentration left out as unconfirmed
[9] = target: GRK2(h) (Homo sapiens (Human), UniProt P25098); design: dose or concentration left out as unconfirmed
[10] = target: GRK6(h) (Homo sapiens (Human), UniProt P43250); design: dose or concentration left out as unconfirmed
[11] = target: HIPK1(h) (Homo sapiens (Human), UniProt Q86Z02); design: dose or concentration left out as unconfirmed
[12] = target: JAK1(h) (Homo sapiens (Human), UniProt P23458); design: dose or concentration left out as unconfirmed
[13] = target: LATS2(h) (Homo sapiens (Human), UniProt Q9NRM7); design: dose or concentration left out as unconfirmed
[14] = target: Lck(h) (Homo sapiens (Human), UniProt P06239); design: dose or concentration left out as unconfirmed
[15] = target: LTK(h) (Homo sapiens (Human), UniProt P29376); design: dose or concentration left out as unconfirmed
[16] = target: MLK2(h) (Homo sapiens (Human), UniProt Q02779); design: dose or concentration left out as unconfirmed
[17] = target: MLK3(h) (Homo sapiens (Human), UniProt Q16584); design: dose or concentration left out as unconfirmed
[18] = target: MRCKγ(h) (Homo sapiens (Human), UniProt Q6DT37); design: dose or concentration left out as unconfirmed
[19] = target: MST3(h) (Homo sapiens (Human), UniProt Q9Y6E0); design: dose or concentration left out as unconfirmed
[20] = target: MST4(h) (Homo sapiens (Human), UniProt Q9P289); design: dose or concentration left out as unconfirmed
[21] = target: MYO3B(h) (Homo sapiens (Human), UniProt Q8WXR4); design: dose or concentration left out as unconfirmed
[22] = target: PI3KC2a(h) (Homo sapiens (Human), UniProt O00443); design: dose or concentration left out as unconfirmed
[23] = target: PIP4K2a(h) (Homo sapiens (Human), UniProt P48426); design: dose or concentration left out as unconfirmed
[24] = target: PKBγ(h) (Homo sapiens (Human), UniProt Q9Y243); design: dose or concentration left out as unconfirmed
[25] = target: SGK3(h) (Homo sapiens (Human), UniProt Q96BR1); design: dose or concentration left out as unconfirmed
[26] = target: Syk(h) (Homo sapiens (Human), UniProt P43405); design: dose or concentration left out as unconfirmed
[27] = target: Tec(h) activated (Homo sapiens (Human), UniProt P42680); design: dose or concentration left out as unconfirmed
[28] = target: TGFBR1(h) (Homo sapiens (Human), UniProt P36897); design: dose or concentration left out as unconfirmed
[29] = target: TGFBR2(h) (Homo sapiens (Human), UniProt P37173); design: dose or concentration left out as unconfirmed
[30] = target: TNIK(h) (Homo sapiens (Human), UniProt Q9UKE5)
[31] = target: TSSK1(h) (Homo sapiens (Human), UniProt Q9BXA7); design: dose or concentration left out as unconfirmed
[32] = target: TTBK2(h) (Homo sapiens (Human), UniProt Q6IQ55); design: dose or concentration left out as unconfirmed
[33] = target: ULK3(h) (Homo sapiens (Human), UniProt Q6PHR2); design: dose or concentration left out as unconfirmed
ULK3(h), sequence (Q6PHR2 whole entry): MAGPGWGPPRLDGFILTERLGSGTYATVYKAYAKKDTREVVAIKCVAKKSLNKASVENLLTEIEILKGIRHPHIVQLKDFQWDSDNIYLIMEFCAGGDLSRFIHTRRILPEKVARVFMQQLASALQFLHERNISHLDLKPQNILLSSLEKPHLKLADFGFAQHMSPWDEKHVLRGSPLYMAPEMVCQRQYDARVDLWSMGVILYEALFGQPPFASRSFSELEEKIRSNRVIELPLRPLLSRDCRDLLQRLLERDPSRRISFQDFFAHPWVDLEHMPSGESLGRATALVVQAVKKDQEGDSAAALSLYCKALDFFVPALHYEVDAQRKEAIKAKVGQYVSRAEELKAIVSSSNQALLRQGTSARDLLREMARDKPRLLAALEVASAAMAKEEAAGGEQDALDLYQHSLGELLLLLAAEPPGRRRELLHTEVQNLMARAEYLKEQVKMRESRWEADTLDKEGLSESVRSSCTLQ

MST3(h), sequence (Q9Y6E0 whole entry): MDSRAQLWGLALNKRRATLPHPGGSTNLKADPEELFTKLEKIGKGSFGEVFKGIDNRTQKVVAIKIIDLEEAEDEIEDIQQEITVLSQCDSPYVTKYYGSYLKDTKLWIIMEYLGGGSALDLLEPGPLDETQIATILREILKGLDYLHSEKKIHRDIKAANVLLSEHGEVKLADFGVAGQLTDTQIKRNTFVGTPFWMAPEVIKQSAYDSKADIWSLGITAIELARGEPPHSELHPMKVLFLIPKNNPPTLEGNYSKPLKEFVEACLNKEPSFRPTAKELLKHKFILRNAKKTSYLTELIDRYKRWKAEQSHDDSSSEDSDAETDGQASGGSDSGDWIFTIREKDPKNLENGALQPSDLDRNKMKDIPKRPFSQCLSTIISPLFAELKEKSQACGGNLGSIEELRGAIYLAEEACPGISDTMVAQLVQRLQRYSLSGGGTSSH
Tec(h) activated, sequence (P42680 whole entry): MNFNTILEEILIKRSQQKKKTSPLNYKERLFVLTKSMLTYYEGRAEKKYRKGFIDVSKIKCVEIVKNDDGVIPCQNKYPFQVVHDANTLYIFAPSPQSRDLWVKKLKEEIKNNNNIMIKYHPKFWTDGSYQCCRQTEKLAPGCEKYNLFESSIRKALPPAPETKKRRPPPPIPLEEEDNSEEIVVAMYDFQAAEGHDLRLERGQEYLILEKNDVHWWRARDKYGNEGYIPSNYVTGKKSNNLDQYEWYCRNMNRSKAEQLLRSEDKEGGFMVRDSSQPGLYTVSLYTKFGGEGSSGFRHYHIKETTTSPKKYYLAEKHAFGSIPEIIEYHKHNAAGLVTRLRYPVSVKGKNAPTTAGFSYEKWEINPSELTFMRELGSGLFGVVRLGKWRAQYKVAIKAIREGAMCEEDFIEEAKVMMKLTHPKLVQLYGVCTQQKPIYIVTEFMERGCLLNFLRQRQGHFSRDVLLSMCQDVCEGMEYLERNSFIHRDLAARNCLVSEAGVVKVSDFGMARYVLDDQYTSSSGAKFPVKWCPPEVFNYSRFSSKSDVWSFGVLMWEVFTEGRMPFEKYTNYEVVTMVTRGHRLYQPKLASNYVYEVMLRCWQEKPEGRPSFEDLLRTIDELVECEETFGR
CDK16/cyclinY(h), sequence (Q00536 whole entry): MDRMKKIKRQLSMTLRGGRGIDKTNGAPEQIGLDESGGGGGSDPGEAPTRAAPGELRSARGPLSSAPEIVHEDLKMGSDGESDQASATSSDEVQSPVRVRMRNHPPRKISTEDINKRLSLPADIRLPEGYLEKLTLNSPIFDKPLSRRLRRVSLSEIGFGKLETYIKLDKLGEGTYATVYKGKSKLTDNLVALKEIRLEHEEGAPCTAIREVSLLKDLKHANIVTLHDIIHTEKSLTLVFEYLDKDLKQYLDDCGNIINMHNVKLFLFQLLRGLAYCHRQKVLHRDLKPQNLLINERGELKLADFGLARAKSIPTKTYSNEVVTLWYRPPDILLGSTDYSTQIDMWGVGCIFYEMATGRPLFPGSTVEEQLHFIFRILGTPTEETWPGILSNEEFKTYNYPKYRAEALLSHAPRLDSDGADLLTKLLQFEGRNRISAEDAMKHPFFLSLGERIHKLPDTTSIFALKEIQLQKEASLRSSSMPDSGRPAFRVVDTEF
CDK16/cyclinY(h), sequence (Q8ND76 whole entry partner): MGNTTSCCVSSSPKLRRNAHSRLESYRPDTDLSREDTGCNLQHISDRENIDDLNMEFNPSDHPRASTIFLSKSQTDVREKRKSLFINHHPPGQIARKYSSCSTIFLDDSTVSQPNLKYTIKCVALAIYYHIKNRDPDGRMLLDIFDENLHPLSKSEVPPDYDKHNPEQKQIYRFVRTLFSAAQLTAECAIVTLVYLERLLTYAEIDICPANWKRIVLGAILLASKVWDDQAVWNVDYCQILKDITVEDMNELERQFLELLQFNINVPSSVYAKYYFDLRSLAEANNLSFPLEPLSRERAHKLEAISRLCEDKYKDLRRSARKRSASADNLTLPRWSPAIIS
MLK2(h), sequence (Q02779 whole entry): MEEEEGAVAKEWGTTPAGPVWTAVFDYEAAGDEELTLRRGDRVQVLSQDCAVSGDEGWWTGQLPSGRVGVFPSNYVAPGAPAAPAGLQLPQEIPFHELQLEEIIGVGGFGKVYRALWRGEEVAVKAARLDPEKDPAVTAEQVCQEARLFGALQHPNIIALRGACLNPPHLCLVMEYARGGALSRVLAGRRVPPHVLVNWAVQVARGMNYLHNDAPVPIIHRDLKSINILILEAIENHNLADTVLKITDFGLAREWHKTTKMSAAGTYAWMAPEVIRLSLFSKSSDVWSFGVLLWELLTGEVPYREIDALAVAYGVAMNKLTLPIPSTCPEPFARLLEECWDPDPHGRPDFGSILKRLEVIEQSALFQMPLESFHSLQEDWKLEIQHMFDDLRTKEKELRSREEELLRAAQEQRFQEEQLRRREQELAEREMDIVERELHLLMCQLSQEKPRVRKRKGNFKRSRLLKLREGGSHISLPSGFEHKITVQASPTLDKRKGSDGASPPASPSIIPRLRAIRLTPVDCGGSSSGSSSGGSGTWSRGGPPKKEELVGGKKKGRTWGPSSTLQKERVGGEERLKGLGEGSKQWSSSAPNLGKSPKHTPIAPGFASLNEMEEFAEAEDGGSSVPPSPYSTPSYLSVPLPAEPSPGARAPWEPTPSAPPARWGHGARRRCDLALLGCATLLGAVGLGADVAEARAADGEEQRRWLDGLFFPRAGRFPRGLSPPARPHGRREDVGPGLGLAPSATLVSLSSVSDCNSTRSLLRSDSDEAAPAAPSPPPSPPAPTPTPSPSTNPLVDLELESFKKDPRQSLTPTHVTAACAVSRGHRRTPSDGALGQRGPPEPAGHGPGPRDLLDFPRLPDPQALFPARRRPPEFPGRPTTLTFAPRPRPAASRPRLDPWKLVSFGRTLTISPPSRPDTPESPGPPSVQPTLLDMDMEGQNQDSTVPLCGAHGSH
LTK(h), sequence (P29376 17-864): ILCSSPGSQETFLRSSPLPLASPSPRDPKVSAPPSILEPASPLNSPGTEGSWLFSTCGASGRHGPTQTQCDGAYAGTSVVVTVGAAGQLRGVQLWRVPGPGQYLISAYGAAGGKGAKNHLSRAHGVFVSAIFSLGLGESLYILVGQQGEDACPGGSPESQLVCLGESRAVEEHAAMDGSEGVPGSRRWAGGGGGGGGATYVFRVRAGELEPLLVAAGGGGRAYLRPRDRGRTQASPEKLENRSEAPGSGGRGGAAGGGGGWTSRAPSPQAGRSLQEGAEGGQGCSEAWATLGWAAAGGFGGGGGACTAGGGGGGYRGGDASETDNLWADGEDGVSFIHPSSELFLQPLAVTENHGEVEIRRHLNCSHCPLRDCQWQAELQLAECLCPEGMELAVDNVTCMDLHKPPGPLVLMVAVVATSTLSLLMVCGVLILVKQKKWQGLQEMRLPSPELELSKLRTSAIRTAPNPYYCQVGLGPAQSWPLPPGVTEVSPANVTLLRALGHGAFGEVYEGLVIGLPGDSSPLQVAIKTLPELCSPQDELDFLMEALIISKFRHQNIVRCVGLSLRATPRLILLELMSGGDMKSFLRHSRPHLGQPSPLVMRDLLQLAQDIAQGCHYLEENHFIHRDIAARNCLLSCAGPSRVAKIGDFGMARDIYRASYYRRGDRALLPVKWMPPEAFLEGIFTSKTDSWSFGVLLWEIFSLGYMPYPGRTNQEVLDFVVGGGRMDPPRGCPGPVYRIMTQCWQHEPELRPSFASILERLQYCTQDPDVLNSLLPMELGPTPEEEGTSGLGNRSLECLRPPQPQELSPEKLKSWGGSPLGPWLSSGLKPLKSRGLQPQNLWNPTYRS
MST4(h), sequence (Q9P289 whole entry): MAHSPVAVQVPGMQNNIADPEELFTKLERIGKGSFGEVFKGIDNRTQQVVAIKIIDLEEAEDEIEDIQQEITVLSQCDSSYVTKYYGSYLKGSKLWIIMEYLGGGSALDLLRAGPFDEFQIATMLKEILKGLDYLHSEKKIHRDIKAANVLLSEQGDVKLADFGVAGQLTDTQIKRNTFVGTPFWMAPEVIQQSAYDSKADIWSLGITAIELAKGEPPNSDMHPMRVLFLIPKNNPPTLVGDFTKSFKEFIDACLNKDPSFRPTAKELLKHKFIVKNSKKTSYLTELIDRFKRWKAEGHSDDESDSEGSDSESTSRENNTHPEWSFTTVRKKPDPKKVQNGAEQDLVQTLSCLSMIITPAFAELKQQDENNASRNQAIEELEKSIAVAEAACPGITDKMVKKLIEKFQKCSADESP
DRAK1(h), sequence (Q9UEE5 whole entry): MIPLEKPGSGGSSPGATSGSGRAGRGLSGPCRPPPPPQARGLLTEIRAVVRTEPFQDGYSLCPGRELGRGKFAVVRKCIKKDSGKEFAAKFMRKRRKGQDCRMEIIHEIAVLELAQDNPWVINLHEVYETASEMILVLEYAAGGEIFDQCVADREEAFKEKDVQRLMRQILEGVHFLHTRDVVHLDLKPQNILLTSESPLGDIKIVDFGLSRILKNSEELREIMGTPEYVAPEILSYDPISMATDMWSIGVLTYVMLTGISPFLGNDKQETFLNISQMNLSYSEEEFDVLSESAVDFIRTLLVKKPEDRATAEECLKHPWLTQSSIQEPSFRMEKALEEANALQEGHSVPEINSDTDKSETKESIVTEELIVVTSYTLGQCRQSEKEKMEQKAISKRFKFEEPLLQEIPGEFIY

## Cc1cc2c(-c3ccc(NC(=O)[C@H](N)CC(C)(C)C)cc3C)ccnc2[nH]1 [Compound F-90, (2R)-2-Amino-4,4-dimethyl-N-[3-methyl-4-(2-methyl-1H-pyrrolo[2,3-b]pyridin-4-yl)phenyl]pentanamide]
[1]
  % Activity: 103%
[2]
  % Activity: 50%
[3]
  % Activity: 104%
[4]
  % Activity: 98%
[5]
  % Activity: 80%
[6]
  % Activity: 112%
[7]
  % Activity: 108%
[8]
  % Activity: 115%
[9]
  % Activity: 95%
[10]
  % Activity: 95%
[11]
  % Activity: 100%
[12]
  % Activity: 85%
[13]
  % Activity: 102%
[14]
  % Activity: 86%
[15]
  % Activity: 97%
[16]
  % Activity: 77%
[17]
  % Activity: 91%
[18]
  % Activity: 98%
[19]
  % Activity: 85%
[20]
  % Activity: 106%
[21]
  % Activity: 79%
[22]
  % Activity: 102%
[23]
  % Activity: 100%
[24]
  % Activity: 101%
[25]
  % Activity: 102%
[26]
  % Activity: 66%
[27]
  % Activity: 126%
[28]
  % Activity: 103%
[29]
  % Activity: 96%
[30]
  % Activity: 93%
[31]
  % Activity: 116%
[32]
  % Activity: 94%
[33]
  % Activity: 95%
